This note sets out measurements from ChEMBL document CHEMBL1909294, “Translating clinical findings into knowledge in drug safety evaluation--drug induced liver injury prediction system (DILIps)” (PLoS Comput Biol, 2011).

The subject of data set [1] is Hepatotoxicity.
For data set [2], the system named is Hepatotoxicity. This is another data set of the same source.
For data set [3], the system named is Hepatotoxicity. The source holds these as a separate data set.
Data set [4] deals with Hepatotoxicity. This is another data set of the same source.
The test system of data set [5] is Hepatotoxicity. The source holds these as a separate data set.
Data set [6] relates to Hepatotoxicity. The source holds these as a separate data set.
Data set [7] concerns Hepatotoxicity. This is another data set of the same source.
For data set [8], the system named is Hepatotoxicity. The source holds these as a separate data set.
Data set [9] deals with Hepatotoxicity. This is another data set of the same source.
In data set [10] the test system is Hepatotoxicity. The source holds these as a separate data set.
The test system of data set [11] is Hepatotoxicity. This is another data set of the same source.
The test system of data set [12] is Hepatotoxicity. This is another data set of the same source.
Data set [13] relates to Hepatotoxicity. This is another data set of the same source.
The subject of data set [14] is Hepatotoxicity. The source holds these as a separate data set.
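For HepSE Combined Scores in this document: combined hepatic side effect score as listed in the training data of the Drug Induced Liver Injury Prediction System (DILIps).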
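For HepSE bilirubinemia in this document: bilirubinemia hepatic side effect score drawn from the DILIps training data, a prediction system for drug-induced liver injury; call rule not given here.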
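For HepSE cholecystitis in this document: Cholecystitis-related hepatic side effect score drawn from the DILIps (drug-induced liver injury prediction) training data set; call rule not given here.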
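For HepSE cholelithiasis in this document: hepatic side effect score for cholelithiasis, drawn from the DILIps training data for predicting drug-induced liver injury; call rule not given here.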
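For HepSE cirrhosis in this document: cirrhosis hepatic side effect score taken from the DILIps (drug-induced liver injury prediction) training set; call rule not given here.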
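For HepSE elevated liver function tests in this document: hepatic side effect score for raised liver function tests, as recorded in the DILIps training set used for predicting drug-induced liver injury.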
For HepSE hepatic failure in this document: call rule not given here.
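For HepSE hepatic necrosis in this document: score of hepatic side effects for hepatic necrosis, drawn from the training data of DILIps, a prediction system for drug-induced liver injury; call rule not given here.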
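For HepSE hepatitis in this document: Hepatitis-related hepatic side effect score taken from the training data of DILIps, a prediction system for drug-induced liver injury; call rule not given here.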
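For HepSE hepatomegaly in this document: hepatic side effect score for hepatomegaly, taken from the training set of the DILIps drug-induced liver injury prediction system; call rule not given here.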
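For HepSE jaundice in this document: Jaundice-related hepatic side-effect score drawn from the training data of the DILIps (drug-induced liver injury prediction system); call rule not given here.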
For HepSE liver disease in this document: call rule not given here.
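For HepSE liver fatty in this document: hepatic side effect score for fatty liver, taken from the DILIps training set for predicting drug-induced liver injury; call rule not given here.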
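For HepSE liver function tests abnormal in this document: hepatic side effect score taken from the DILIps (drug-induced liver injury prediction system) training data, here covering abnormal liver function test findings.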

In the data set with Hepatotoxicity [1], `Cc1[nH]c(=O)c(C#N)cc1-c1ccncc1` [MILRINONE] yielded a HepSE_bilirubinemia of 0. The compound also gave a HepSE_cholecystitis in the data set on Hepatotoxicity [2] of 0. For the same compound, the HepSE_cholelithiasis with Hepatotoxicity [3] is recorded as 0. In the data set on Hepatotoxicity [4], this compound gave a HepSE_cirrhosis of 0. In addition, the “HepSE_elevated liver function tests” value in the data set with Hepatotoxicity [5] came to 0. Also, in the data set on Hepatotoxicity [6], the HepSE_hepatic failure is on record as 0. Moreover, the HepSE_hepatic necrosis with Hepatotoxicity [7] came to 0. The compound also gave a HepSE_hepatitis with Hepatotoxicity [8] of 0. Besides, in the data set with Hepatotoxicity [9], the HepSE_hepatomegaly was 0. In the data set with Hepatotoxicity [10], the HepSE_jaundice came to 0. Also, the HepSE_liver disease in the data set with Hepatotoxicity [11] stood at 0. Besides, in the data set with Hepatotoxicity [12], the HepSE_liver fatty is 0. The “HepSE_liver function tests abnormal” value in the data set with Hepatotoxicity [13] was determined as 0. Also, the “HepSE_Combined Scores” value with Hepatotoxicity [14] was 0.
Take `NNC(=O)c1ccncc1` [ISONIAZID]: the HepSE_bilirubinemia with Hepatotoxicity [1] is on record as 1. In the data set with Hepatotoxicity [2], the HepSE_cholecystitis is 0. The compound further gave a HepSE_cholelithiasis in the data set with Hepatotoxicity [3] of 0. The same compound displayed a HepSE_cirrhosis in the data set on Hepatotoxicity [4] of 0. Besides, the “HepSE_elevated liver function tests” value with Hepatotoxicity [5] was found to be 0. Moreover, the HepSE_hepatic failure with Hepatotoxicity [6] was 0. The HepSE_hepatic necrosis with Hepatotoxicity [7] was 0. This compound yielded a HepSE_hepatitis in the data set on Hepatotoxicity [8] of 0. The HepSE_hepatomegaly in the data set on Hepatotoxicity [9] was determined as 0. In the data set with Hepatotoxicity [10], this compound came in with a HepSE_jaundice of 1. In the data set with Hepatotoxicity [11], this compound gave a HepSE_liver disease of 0. The compound also came in with a HepSE_liver fatty in the data set with Hepatotoxicity [12] of 0. Besides, the “HepSE_liver function tests abnormal” value in the data set on Hepatotoxicity [13] turned out to be 0. The “HepSE_Combined Scores” value in the data set on Hepatotoxicity [14] is on record as 2.
In turn, `CO[C@H]1/C=C/O[C@@]2(C)Oc3c(C)c(O)c4c(O)c(c(/C=N/N5CCN(C)CC5)c(O)c4c3C2=O)NC(=O)/C(C)=C\C=C\[C@H](C)[C@H](O)[C@@H](C)[C@@H](O)[C@@H](C)[C@H](OC(C)=O)[C@@H]1C` [RIFAMPIN] came in with a HepSE_bilirubinemia in the data set with Hepatotoxicity [1] of 0. In the data set on Hepatotoxicity [2], this compound registered a HepSE_cholecystitis of 0. The same compound yielded a HepSE_cholelithiasis in the data set with Hepatotoxicity [3] of 0. The same compound gave a HepSE_cirrhosis with Hepatotoxicity [4] of 0. Also, the “HepSE_elevated liver function tests” value in the data set with Hepatotoxicity [5] is given as 0. The compound further yielded a HepSE_hepatic failure in the data set on Hepatotoxicity [6] of 0. In addition, in the data set with Hepatotoxicity [7], the HepSE_hepatic necrosis came out at 0. Also, the HepSE_hepatitis in the data set on Hepatotoxicity [8] came to 1. This compound also showed a HepSE_hepatomegaly with Hepatotoxicity [9] of 0. Besides, the HepSE_jaundice in the data set with Hepatotoxicity [10] stood at 1. The compound further returned a HepSE_liver disease with Hepatotoxicity [11] of 0. Besides, the HepSE_liver fatty in the data set on Hepatotoxicity [12] is 0. Besides, the “HepSE_liver function tests abnormal” value with Hepatotoxicity [13] is listed as 1. The “HepSE_Combined Scores” value with Hepatotoxicity [14] is on record as 3.
As to `Nc1nc2c(ncn2COCCO)c(=O)[nH]1` [ACYCLOVIR], the HepSE_bilirubinemia in the data set on Hepatotoxicity [1] worked out at 1. In the data set on Hepatotoxicity [2], this compound came in with a HepSE_cholecystitis of 0. Further, in the data set on Hepatotoxicity [3], the HepSE_cholelithiasis came to 0. In addition, the HepSE_cirrhosis in the data set with Hepatotoxicity [4] is on record as 0. Further, in the data set with Hepatotoxicity [5], the “HepSE_elevated liver function tests” value is reported as 1. The HepSE_hepatic failure in the data set on Hepatotoxicity [6] is on record as 0. This compound also had a HepSE_hepatic necrosis in the data set with Hepatotoxicity [7] of 0. The HepSE_hepatitis with Hepatotoxicity [8] is recorded as 1. The HepSE_hepatomegaly with Hepatotoxicity [9] is listed as 0. Besides, in the data set on Hepatotoxicity [10], the HepSE_jaundice is on record as 1. Further, the HepSE_liver disease in the data set with Hepatotoxicity [11] is 0. This compound displayed a HepSE_liver fatty with Hepatotoxicity [12] of 0. In the data set on Hepatotoxicity [13], the “HepSE_liver function tests abnormal” value was found to be 0. In the data set on Hepatotoxicity [14], the “HepSE_Combined Scores” value was found to be 4.
As for `CC#CCC(C)[C@H](O)/C=C/[C@@H]1[C@H]2C/C(=C/CCCC(=O)O)C[C@H]2C[C@H]1O` (stereo not given in full) [ILOPROST], the HepSE_bilirubinemia in the data set on Hepatotoxicity [1] was found to be 0. The compound further displayed a HepSE_cholecystitis in the data set on Hepatotoxicity [2] of 0. The compound further displayed a HepSE_cholelithiasis in the data set on Hepatotoxicity [3] of 0. In the data set with Hepatotoxicity [4], this compound showed a HepSE_cirrhosis of 0. Moreover, in the data set on Hepatotoxicity [5], the “HepSE_elevated liver function tests” value is 0. The same compound showed a HepSE_hepatic failure in the data set on Hepatotoxicity [6] of 0. The same compound returned a HepSE_hepatic necrosis with Hepatotoxicity [7] of 0. In the data set on Hepatotoxicity [8], this compound yielded a HepSE_hepatitis of 0. Also, the HepSE_hepatomegaly with Hepatotoxicity [9] is given as 0. In the data set on Hepatotoxicity [10], this compound returned a HepSE_jaundice of 0. In the data set on Hepatotoxicity [11], this compound yielded a HepSE_liver disease of 0. This compound also yielded a HepSE_liver fatty in the data set with Hepatotoxicity [12] of 0. Moreover, the “HepSE_liver function tests abnormal” value with Hepatotoxicity [13] is on record as 0. Also, the “HepSE_Combined Scores” value in the data set with Hepatotoxicity [14] was found to be 0.
